# Source: article PMC4987127 (Leukemia, 2015)
# Experiments:
# [1] = system: FLT3-mediated signaling pathways; experiment: FLT3-mediated signaling pathways in FLT3-ITD positive cell lines; assay type: cell-based
# [2] = molecular target: BTK kinase (Homo sapiens, UniProt Q06187); experiment: BTK signaling in AML cell lines: BTK phosphorylation; assay type: cell-based; conditions: FLT3 wt and FLT3-ITD cell lines
# [3] = system: PLCγ; experiment: BTK signaling in AML cell lines: downstream mediators; assay type: cell-based; conditions: for effect on PLCγ phosphorylation: direct downstream target of BTK
# [4] = system: AKT and ERK; experiment: Phosphorylation of AKT and ERK in AML cell lines; assay type: cell-based
# [5] = system: FLT3-ITD mutant AML cell lines (MOLM13, MOLM14 and MV4-11); experiment: Proliferation screen of a panel of AML cell lines; assay type: cell-based; conditions: panel of AML cell lines spanning M0–M7; only FLT3-ITD mutant lines MOLM13, MOLM14, MV4-11
# [6] = system: OCI-AML3 and NOMO-1 cells; experiment: FLT3-mediated signaling in FLT3 low expression cell lines; assay type: cell-based
# [7] = system: FLT3-ITD-dependent isogenic BaF3 cell line; experiment: Isogenic BaF3 cell proliferation; assay type: cell-based
# [8] = system: FLT3-D835H-BaF3; experiment: Isogenic BaF3 cell proliferation; assay type: cell-based; conditions: Mus musculus
# [9] = system: FLT3-D835Y-BaF3; experiment: Isogenic BaF3 cell proliferation; assay type: cell-based; conditions: Mus musculus
# [10] = system: TEL-FLT3-wt-BaF3; experiment: Isogenic BaF3 cell proliferation; assay type: cell-based; conditions: Mus musculus
# [11] = system: ITD-D835Y; experiment: Isogenic BaF3 cell proliferation; assay type: cell-based
# [12] = system: ITD-F691L; experiment: Isogenic BaF3 cell proliferation; assay type: cell-based
# [13] = system: FLT3-K663Q; experiment: Isogenic BaF3 cell proliferation; assay type: cell-based
# [14] = system: c-Kit Ba/F3 cells; experiment: Oncogene-expressing Ba/F3 cell growth; assay type: cell-based
# [15] = system: PDGFRα Ba/F3 cells; experiment: Oncogene-expressing Ba/F3 cell growth; assay type: cell-based
# [16] = system: BCR-ABL Ba/F3 cells; experiment: Oncogene-expressing Ba/F3 cell growth; assay type: cell-based
# [17] = system: NRAS Ba/F3 cells; experiment: Oncogene-expressing Ba/F3 cell growth; assay type: cell-based
# [18] = molecular target: FLT3 kinase (Homo sapiens, UniProt P36888); experiment: Binding mode examination; conditions: molecular modeling, confirmed by washing-out experiment
# Chain of FLT3 kinase (P36888 27-993): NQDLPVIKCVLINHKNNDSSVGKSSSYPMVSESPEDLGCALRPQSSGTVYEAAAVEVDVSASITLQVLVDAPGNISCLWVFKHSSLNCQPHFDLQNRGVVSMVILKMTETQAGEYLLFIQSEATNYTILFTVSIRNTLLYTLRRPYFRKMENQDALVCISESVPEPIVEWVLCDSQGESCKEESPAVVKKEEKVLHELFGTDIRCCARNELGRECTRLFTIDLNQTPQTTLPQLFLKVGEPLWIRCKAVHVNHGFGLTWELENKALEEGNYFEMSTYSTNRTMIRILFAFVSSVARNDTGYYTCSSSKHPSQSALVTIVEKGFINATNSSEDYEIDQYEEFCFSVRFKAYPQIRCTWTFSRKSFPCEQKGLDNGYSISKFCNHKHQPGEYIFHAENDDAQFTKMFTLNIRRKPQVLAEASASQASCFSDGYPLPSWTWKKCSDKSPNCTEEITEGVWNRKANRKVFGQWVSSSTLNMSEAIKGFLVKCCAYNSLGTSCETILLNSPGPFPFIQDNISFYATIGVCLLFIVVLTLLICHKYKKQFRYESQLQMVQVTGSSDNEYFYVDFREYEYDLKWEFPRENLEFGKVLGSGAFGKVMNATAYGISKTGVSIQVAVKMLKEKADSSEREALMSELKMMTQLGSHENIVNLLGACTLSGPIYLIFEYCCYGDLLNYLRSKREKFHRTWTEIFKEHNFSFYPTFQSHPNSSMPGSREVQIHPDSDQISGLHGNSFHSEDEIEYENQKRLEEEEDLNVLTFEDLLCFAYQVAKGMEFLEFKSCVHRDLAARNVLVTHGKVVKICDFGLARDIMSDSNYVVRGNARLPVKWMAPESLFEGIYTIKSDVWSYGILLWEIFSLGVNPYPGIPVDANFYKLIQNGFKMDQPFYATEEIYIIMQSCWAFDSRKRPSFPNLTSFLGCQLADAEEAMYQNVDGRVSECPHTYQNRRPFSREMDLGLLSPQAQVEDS
# [19] = system: FLT3-ITD cell lines; experiment: Apoptotic cell death; assay type: cell-based; conditions: concentration- and time-dependent
# [20] = system: FLT3-ITD mutant-expressing primary patient cells; experiment: Anti-proliferation on primary patient cells; assay type: cell-based
# [21] = system: BTK-KD MOLM14 and MOLM13 cells; conditions: BTK knockdown MOLM14 and MOLM13
# [22] = system: U937 cells; conditions: U937 cells ref 11; cited from earlier work
# [23] = system: HL60; conditions: HL60 ref 11; cited from earlier work
# [24] = system: TF-1; conditions: TF-1 ref 11; cited from earlier work
# [25] = system: THP-1; conditions: THP-1 ref 11; cited from earlier work
# Chain of BTK kinase (Q06187 whole entry): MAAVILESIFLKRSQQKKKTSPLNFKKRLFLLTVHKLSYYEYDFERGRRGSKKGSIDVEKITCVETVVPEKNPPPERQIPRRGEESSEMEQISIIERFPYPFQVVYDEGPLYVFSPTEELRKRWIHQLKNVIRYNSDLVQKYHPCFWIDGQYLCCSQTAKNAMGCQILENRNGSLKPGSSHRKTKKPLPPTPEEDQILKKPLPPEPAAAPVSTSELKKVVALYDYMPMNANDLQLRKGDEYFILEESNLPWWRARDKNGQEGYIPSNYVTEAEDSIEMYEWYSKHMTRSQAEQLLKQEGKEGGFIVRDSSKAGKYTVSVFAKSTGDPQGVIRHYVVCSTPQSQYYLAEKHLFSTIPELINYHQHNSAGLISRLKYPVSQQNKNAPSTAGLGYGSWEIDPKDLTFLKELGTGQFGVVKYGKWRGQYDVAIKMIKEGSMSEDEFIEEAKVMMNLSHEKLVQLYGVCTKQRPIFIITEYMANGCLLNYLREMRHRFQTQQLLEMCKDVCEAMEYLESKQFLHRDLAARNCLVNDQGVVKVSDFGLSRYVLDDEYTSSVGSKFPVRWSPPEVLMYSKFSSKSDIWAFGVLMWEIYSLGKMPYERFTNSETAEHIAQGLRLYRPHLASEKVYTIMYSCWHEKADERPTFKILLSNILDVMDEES
smiles,measurement,setting,value
C=CC(=O)Nc1cccc(Nc2nc(Nc3ccc(OCCOC)cc3)ncc2F)c1 [AVL-292],effect on FLT3-mediated signaling,[1],did not exhibit any effect
same,effect on BTK kinase phosphorylation/activity,[2],effective
same,effect on PLCγ phosphorylation,[3],effective
same,effect on phosphorylation of AKT and ERK,[4],no effect
CC(C)(C)c1cc(NC(=O)Nc2ccc(-c3cn4c(n3)sc3cc(OCCN5CCOCC5)ccc34)cc2)no1 [AC220],effect on BTK kinase phosphorylation/activity,[2],did not affect
same,effect on PLCγ phosphorylation,[3],did not affect
same,effect on phosphorylation of AKT and ERK,[4],inhibited
Cc1c(NC(=O)c2ccc(C(C)(C)C)cc2)cccc1-c1cn(C)c(=O)c(Nc2ccc(C(=O)N3CCOCC3)cc2)n1 [CGI-1746],effect on FLT3-mediated signaling,[1],did not exhibit any effect
same,effect on PLCγ phosphorylation,[3],effective
same,effect on phosphorylation of AKT and ERK,[4],no effect
"C=CC(=O)N1CCC[C@@H](n2nc(-c3ccc(Oc4ccccc4)cc3)c3c(N)ncnc32)C1 [ibrutinib, Ibrutinib]",sensitivity to ibrutinib (proliferation),[5],sensitive
same,effect on FLT3-related signaling,[6],not affected
same,effect on downstream mediators of BTK kinase,[3]; only in FLT3 wt-expressing cell lines (NOMO-1 and OCI-AML3),affected
same,rescue of inhibitory effect by IL-3 treatment,[7]; FLT3-ITD BaF3 with IL-3,completely rescued
same,GI50,"[7]; Mus musculus, BaF3",120 nM
same,GI50,[8],63 nM
same,GI50,[9],500 nM
same,GI50,[10],460 nM
same,activity against mutation,[11],less active
same,activity against mutation,[12],less active
same,activity against mutation,[13],less active
same,effect on growth,[14],did not affect the growth
same,effect on growth,[15],did not affect the growth
same,effect on growth,[16],did not affect the growth
same,effect on growth,[17],did not affect the growth
same,mode of inhibition of FLT3 kinase,[18],reversible binding
same,apoptotic cell death,[19],induced apoptotic cell death
same,anti-proliferation activity,[20],dose-dependent anti-proliferation activity
same,growth of BTK-KD cells,[21],significantly blocked the growth
same,inhibition of proliferation,[22],moderate inhibition of proliferation
same,activity against AML cell line,[23],no apparent activity
same,activity against AML cell line,[24],no apparent activity
same,activity against AML cell line,[25],no apparent activity
